In US6683083B1, “Anticancer agents” (priority 1999, dated 2004):
Where “and” joins values, the source holds several entries; their conditions need not be identical. Identical values can stand only once.

Columns and labels:
[1] = system: HL60 (human leukemia cell line); assay: MTT assay, in vitro antitumor effect; format: cell-based; conditions: HL60, 96 hours incubation, average±error range of triple culture tests, read-out: amount of compound 1 required to achieve IC50
From the text: (§1) (2) Verification of In Vitro Antitumor Effects on Various Human Cancer Cell Lines According to the MTT Assay Method.
(§2) Each single cell of a human non-small-cell lung cancer cell line PC-14, a human non-small-cell lung cancer cell line SBC-3, a human […] cell line MCF-7, a human non-small-cell ovarian cancer cell line SKOV3, a human leukemia cell line HL60 and a human colon cancer cell line WiDR was obtained by trypsinization or by using a cell scraper in RPMI 1640 medium to prepare a suspension containing 100 cells per 15 μl. The compound 1 as an anticancer agent was dissolved in dimethylsulfoxide and then the solution was added to the suspension to make the concentration of the compound fall within a range between 0.5 and 1 μM, and the resulting suspension was poured into a 96-perforated plate at 150 μl/well. This plate was maintained at a temperature of 37° C. under 5% of carbon dioxide and saturated vapor for 96 hours to incubate the suspension. After incubation, the incubated suspension was combined with 20 μl of MTT (3-(4,5-dimethylthiazol-2-yl)-2,5-diphenyltetrazoliumbromide) reagent dissolved in D-PBS (−) at a concentration of 5 mg/ml, and was further incubated at 37° C. for 4 hours. After the completion of incubation, the entire plate was centrifuged to discharge supernatant. Then, 200 μl of dimethyl sulfoxide was added to dissolve purple formazan which is created from yellow MTT by the action of dehydrogenase lying in mitochondria in the cancer cell, and the amount of the created formazan was determined by reading the absorbance at a wave length ranging from 562 to 630 nm with a multi-plate reader. Given that the average growth rate of a negative control is […] and the average growth rate of a positive control is 100%, a tumor-volume growth curve was plotted, and the concentration of compound 1 required for 50% of human cancer-cell proliferation suppression was calculated.
(§3) The values in Table 1 indicate each value of the concentration required for 50% of human cancer-cell proliferation suppression from the MTT assay in triple culture tests of independent cancer cells using compound 1 by average±error range (μM).

[2] = system: MCF-7 (human mammary cancer cell line); assay: MTT assay, in vitro antitumor effect; format: cell-based; conditions: MCF-7, 96 hours incubation, average±error range of triple culture tests, read-out: amount of compound 1 required to achieve IC50
From the text: as §1, §2, §3

[3] = system: SBC-3 (human small-cell lung cancer cell line); assay: MTT assay, in vitro antitumor effect; format: cell-based; conditions: SBC-3, 96 hours incubation, average±error range of triple culture tests, read-out: amount of compound 1 required to achieve IC50
From the text: as §1, §2, §3

[4] = system: SKOV3 (human ovarian cancer cell line); assay: MTT assay, in vitro antitumor effect; format: cell-based; conditions: SKOV3, 96 hours incubation, average±error range of triple culture tests, read-out: amount of compound 1 required to achieve IC50
From the text: as §1, §2, §3

[5] = system: WiDR (human colon cancer cell line); assay: MTT assay, in vitro antitumor effect; format: cell-based; conditions: 96 hours incubation, average±error range of triple culture tests, read-out: amount of compound 1 required to achieve IC50
From the text: as §1, §2, §3

[6] = system: human non-small-cell lung cancer cell line PC-14; assay: MTT assay, in vitro antitumor effect; format: cell-based; conditions: PC-14, 96 hours incubation, average±error range of triple culture tests, read-out: amount of compound 1 required to achieve IC50
From the text: as §1, §2, §3

[7] = system: fibroblasts NIH3T3; assay: Fibroblast cell-proliferation suppression (cell count); format: cell-based; conditions: NIH3T3, 1×10^−6 M and 3×10^−6 M, cell number every 24 hours, FIG. 1
Experimental: FIG. 1 is a graph showing a cell-proliferation suppressing action against fibroblast of the compound represented by the above general formula [1] and the like shown in Example 2.
Nine plates were prepared for each of control and compound 1 groups each having a concentration of 1×10^−6 M and a compound 1 group having a concentration of 3×10^−6 M (total of 27 plates). The number 4.4×10^5 of fibroblasts NIH3T3 were added to each of the 27 plates, and D-MEM culture solution added with 10% FBS (fetal bovine serum) was added thereto. Each of the controls was incubated with added water corresponding to the added amount of compound 1. The number of cells in 3 plates of each of the groups was measured every 24 hours, and the measured numbers were averaged to provide an average cell number per plate.

[8] = system: human non-small-cell lung cancer cell line PC-14; assay: PC-14 subcutaneous implant in nude mice, tumor volume; format: in vivo, female nude mice BALB/c nu/nu; parameters: key: relative tumor volume, 1st day = 100; volume = minor axis^2 × major axis; conditions: 1st day = 100
[9] = Entire body state and weight of tumor-bearing nude mice; format: in vivo, female nude mice BALB/c nu/nu; conditions: 3 and 5 mg/kg by tail injection, once a day on 7th, 8th, 10th, 11th days after implantation
Experimental: For six subjects of the group number 1, the compound 1 was administered by injecting from each tail of the nude mice on each of the 7th, 8th, 10th and 11th days after the implantation, at 3 mg of the compound 1 per kg of weight once a day. For six subjects of the group number 2, the compound 1 was administered by injecting from each tail of the nude mice on each of the 7th, 8th, 10th and 11th days after the implantation, at 5 mg of the compound 1 per kg of weight once a day. The subjects of the group number […] to be the controls were a group having no administration of the compound 1, and neither administration nor treatment of the compound 1 was performed on the controls. […] However, in the result of each tumor volume of the mice, a specific difference was found between the subjects of the group numbers 1 to 3. The measurement of the tumor volumes is shown in the following Table 2, and the average of the tumor volumes in each of the groups is shown in Table 3. In Tables 2 and 3, each size of the tumor volumes after the 2nd day is represented on condition that the size of the tumor volume on the 1st day is 100.

[10] = system: various cancers; assay: Overall carcinostatic effect, results of examples 1 to 3; conditions: overall statement

IC50 [1]: 1180 ± 50 nM
IC50 [2]: 600 ± 80 nM
IC50 [3]: 460 ± 30 nM
IC50 [4]: 850 ± 20 nM
IC50 [5]: 410 ± 30 nM
IC50 [6]: 1020 ± 200 nM
entire body state and weight of the mice versus control [9]: substantially no difference
SMILES: OC(CN1CCN(C(c2ccccc2)c2ccccc2)CC1)CN1CCC(O)(c2ccc(Cl)cc2)CC1 (stereo not shown) [compound 1, 1-[1-4-(diphenylmethyl)piperazinyl]-3-[1-{4-(4-chlorophenyl)-4-hydroxy}piperidinyl]-2-propanol]
cell-proliferation suppressing action against fibroblast [7]: effectiveness to proliferative lesions
tumor volume, average (6 mice) ([8]; group No. 2 (3 mg/kg tail injection), 2 day): 89.79
tumor volume, individual mice ([8]; group No. 2 (3 mg/kg tail injection), 2 day, 3 mg/kg): 45.35 and 120.51 and 139.67 and 73.21 and 73.29 and 66.68
tumor volume, average (6 mice) ([8]; group No. 2 (3 mg/kg tail injection), 3 day): 67.01
tumor volume, individual mice ([8]; group No. 2 (3 mg/kg tail injection), 3 day, 3 mg/kg): 20.22 and 98.14 and 85.27 and 52.91 and 62.47 and 83.06
tumor volume, average (6 mice) ([8]; group No. 2 (3 mg/kg tail injection), 4 day): 68.38
tumor volume, individual mice ([8]; group No. 2 (3 mg/kg tail injection), 4 day, 3 mg/kg): 46.17 and 80.18 and 105.01 and 42.19 and 31.02 and 85.73
tumor volume, average (6 mice) ([8]; group No. 2 (3 mg/kg tail injection), 5 day): 46.68
tumor volume, individual mice ([8]; group No. 2 (3 mg/kg tail injection), 5 day, 3 mg/kg): 31.44 and 66.58 and 67.76 and 22.55 and 18.55 and 51.09
tumor volume, average (6 mice) ([8]; group No. 2 (3 mg/kg tail injection), 6 day): 47.73
tumor volume, individual mice ([8]; group No. 2 (3 mg/kg tail injection), 6 day, 3 mg/kg): 30.93 and 122.90 and 55.16 and 0.00 and 10.11 and 51.30
tumor volume, average (6 mice) ([8]; group No. 2 (3 mg/kg tail injection), 7 day): 42.99
tumor volume, individual mice ([8]; group No. 2 (3 mg/kg tail injection), 7 day, 3 mg/kg): 52.68 and 99.04 and 75.58 and 0.00 and 12.98 and 47.68
tumor volume, average (6 mice) ([8]; group No. 2 (3 mg/kg tail injection), 8 day): 58.33
tumor volume, individual mice ([8]; group No. 2 (3 mg/kg tail injection), 8 day, 3 mg/kg): 56.49 and 127.45 and 130.56 and 0.00 and 4.97 and 30.49
tumor volume, average (6 mice) ([8]; group No. 3 (5 mg/kg tail injection), 2 day): 78.63
tumor volume, individual mice ([8]; group No. 3 (5 mg/kg tail injection), 2 day, 5 mg/kg): 55.40 and 63.47 and 93.53 and 68.25 and 90.42 and 80.68
tumor volume, average (6 mice) ([8]; group No. 3 (5 mg/kg tail injection), 3 day): 75.11
tumor volume, individual mice ([8]; group No. 3 (5 mg/kg tail injection), 3 day, 5 mg/kg): 58.27 and 43.51 and 72.22 and 113.73 and 70.23 and 92.68
tumor volume, average (6 mice) ([8]; group No. 3 (5 mg/kg tail injection), 4 day): 74.99
tumor volume, individual mice ([8]; group No. 3 (5 mg/kg tail injection), 4 day, 5 mg/kg): 79.34 and 40.73 and 83.65 and 123.79 and 36.86 and 84.55
tumor volume, average (6 mice) ([8]; group No. 3 (5 mg/kg tail injection), 5 day): 60.45
tumor volume, individual mice ([8]; group No. 3 (5 mg/kg tail injection), 5 day, 5 mg/kg): 47.44 and 40.65 and 62.95 and 103.32 and 28.95 and 79.20
tumor volume, average (6 mice) ([8]; group No. 3 (5 mg/kg tail injection), 6 day): 53.82
tumor volume, individual mice ([8]; group No. 3 (5 mg/kg tail injection), 6 day, 5 mg/kg): 33.96 and 32.21 and 54.93 and 135.18 and 14.65 and 51.96
tumor volume, average (6 mice) ([8]; group No. 3 (5 mg/kg tail injection), 7 day): 64.86
tumor volume, individual mice ([8]; group No. 3 (5 mg/kg tail injection), 7 day, 5 mg/kg): 34.07 and 36.27 and 86.76 and 129.59 and 17.36 and 85.12
tumor volume, average (6 mice) ([8]; group No. 3 (5 mg/kg tail injection), 8 day): 62.63
tumor volume, individual mice ([8]; group No. 3 (5 mg/kg tail injection), 8 day, 5 mg/kg): 47.99 and 15.80 and 102.87 and 140.33 and 7.22 and 61.54
carcinostatic effect (results of examples 1 to 3) [10]: high carcinostatic effect
